From patent US12077503B2, “Substituted cyclic amides and their use as herbicides” (FMC CORPORATION, priority 2015, dated 2024)

Experiments:
Format in all cases: in vivo
[1] = system: ragweed (common ragweed, Ambrosia elatior); experiment: Test A preemergence; details: Ambrosia artemisiifolia, pre-emergence, 240 h, read-out: Plant response rating, Ragweed; for pest or weed control at 125 g/ha: 125 g ai/ha, preemergence, visual rating after approx. 10 d, 0 to 100 scale where 0 is no effect and 100 is complete control; for pest or weed control at 31 g/ha: Preemergence, 31 g ai/ha, 0 to 100 scale (0 no effect, 100 complete control)
How it was run: (§1)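 Seeded soil received test chemicals as a preemergence directed spray, and seedlings at one to two leaves, 2–10 cm tall, received them postemergence, in a non-phytotoxic, surfactant-containing solvent mixture. Pots were held in a greenhouse for approximately 10 d, then rated for injury from 0, no effect, to 100, complete control.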

[2] = system: ryegrass, Italian (Italian ryegrass, Lolium multiflorum); experiment: Test A preemergence; details: Lolium multiflorum, pre-emergence, 240 h, read-out: Plant response rating, Ryegrass, Italian; for pest or weed control at 125 g/ha: 125 g ai/ha, preemergence, visual rating after approx. 10 d, 0 to 100 scale where 0 is no effect and 100 is complete control; for pest or weed control at 31 g/ha: Preemergence, 31 g ai/ha, 0 to 100 scale (0 no effect, 100 complete control)
How it was run: as §1

[3] = system: pigweed (Amaranthus retroflexus); experiment: Test A preemergence; details: Amaranthus retroflexus, pre-emergence, 240 h, read-out: Plant response rating, Pigweed; for pest or weed control at 125 g/ha: 125 g ai/ha, preemergence, visual rating after approx. 10 d, 0 to 100 scale where 0 is no effect and 100 is complete control; for pest or weed control at 31 g/ha: Preemergence, 31 g ai/ha, 0 to 100 scale (0 no effect, 100 complete control)
[4] = system: barnyardgrass (Echinochloa crus-galli); experiment: Test A preemergence; details: Echinochloa crus-galli, pre-emergence, 240 h, read-out: Plant response rating, Barnyardgrass; for pest or weed control at 125 g/ha: 125 g ai/ha, preemergence, visual rating after approx. 10 d, 0 to 100 scale where 0 is no effect and 100 is complete control; for pest or weed control at 31 g/ha: Preemergence, 31 g ai/ha, 0 to 100 scale (0 no effect, 100 complete control)
How it was run: as §1

[5] = system: giant foxtail (Setaria faberii); experiment: Test A preemergence; details: Setaria faberi, pre-emergence, 240 h, read-out: Plant response rating, Foxtail, Giant; for pest or weed control at 125 g/ha: 125 g ai/ha, preemergence, visual rating after approx. 10 d, 0 to 100 scale where 0 is no effect and 100 is complete control; for pest or weed control at 31 g/ha: Preemergence, 31 g ai/ha, 0 to 100 scale (0 no effect, 100 complete control)
How it was run: as §1

[6] = system: Kochia (Kochia scoparia); experiment: Test A preemergence; details: Bassia scoparia, pre-emergence, 240 h, read-out: Plant response rating, Kochia; for pest or weed control at 125 g/ha: 125 g ai/ha, preemergence, visual rating after approx. 10 d, 0 to 100 scale where 0 is no effect and 100 is complete control; for pest or weed control at 31 g/ha: Preemergence, 31 g ai/ha, 0 to 100 scale (0 no effect, 100 complete control)
How it was run: as §1

[7] = system: ryegrass, Italian (Italian ryegrass, Lolium multiflorum); experiment: Test A postemergence; details: Lolium multiflorum, post-emergence, 240 h; for pest or weed control at 125 g/ha: 125 g ai/ha, postemergence; for pest or weed control at 31 g/ha: Postemergence, 31 g ai/ha, visual injury after approx. 10 d, 0 to 100 scale, 0 no effect, 100 complete control
How it was run: as §1

[8] = system: pigweed (Amaranthus retroflexus); experiment: Test A postemergence; details: Amaranthus retroflexus, post-emergence, 240 h; for pest or weed control at 125 g/ha: 125 g ai/ha, postemergence; for pest or weed control at 31 g/ha: Postemergence, 31 g ai/ha, visual injury after approx. 10 d, 0 to 100 scale, 0 no effect, 100 complete control
How it was run: as §1

[9] = system: corn (Zea mays); experiment: Test A postemergence; details: Zea mays, post-emergence, 240 h; for Corn plant response rating (crop injury, 0 = no effect, 100 = complete kill) at 125 g/ha / plant injury at 125 g/ha: 125 g ai/ha, postemergence; for Corn plant response rating (crop injury, 0 = no effect, 100 = complete kill) at 125 g/ha: visual injury after approximately 10 d, 0 to 100 scale (0 no effect, 100 complete control); for Corn plant response rating (crop injury, 0 = no effect, 100 = complete kill) at 31 g/ha: Postemergence, 31 g ai/ha, visual injury after approx. 10 d, 0 to 100 scale, 100 complete control; for plant injury at 125 g/ha: visual injury rating after approximately 10 d, read-out: Corn plant response rating (0 to 100 scale, 0 no effect, 100 complete control)
How it was run: as §1

[10] = system: wheat (Triticum aestivum); experiment: Test A postemergence; details: Triticum aestivum, post-emergence, 240 h; for plant injury at 31 g/ha: Postemergence, 31 g ai/ha, visual injury after approx. 10 d, 0 to 100 scale, 0 no effect, 100 complete control, read-out: Plant response rating, Wheat; for plant injury at 125 g/ha: 125 g ai/ha, postemergence, visual injury rating after approximately 10 d, read-out: Wheat plant response rating (0 to 100 scale, 0 no effect, 100 complete control)
How it was run: as §1

[11] = system: ducksalad (Heteranthera limosa); experiment: Test B flooded paddy test; details: Heteranthera limosa, Flood, 250 g ai/ha; scale of 0 to 100 where 0 is no effect and 100 is complete control; read-out: Ducksalad plant response rating
How it was run: (§2)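 Flooding to 3 cm over soil accompanied treatment, which consisted of adding compound to the standing water around 2-leaf plants; depth was then maintained. Visual assessment versus controls followed at 13 to 15 d (scale 0–100, 0 meaning no effect).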

[12] = system: rice (Oryra sativa); experiment: Test B flooded paddy test; details: Oryza sativa, Flood, 250 g ai/ha; scale of 0 to 100 where 0 is no effect and 100 is complete control; read-out: Rice plant response rating
How it was run: as §2

[13] = system: barnyardgrass (Echinochloa crus-galli); experiment: Test B flooded paddy test; details: Echinochloa crus-galli, Flood, 250 g ai/ha; scale of 0 to 100 where 0 is no effect and 100 is complete control; read-out: Barnyardgrass plant response rating
How it was run: as §2

[14] = system: sedge, umbrella (small-flower umbrella sedge, Cyperus difformis); experiment: Test B flooded paddy test; details: Cyperus difformis, Flood, 250 g ai/ha; scale of 0 to 100 where 0 is no effect and 100 is complete control; read-out: Sedge, Umbrella plant response rating
How it was run: as §2

[15] = visual injury after approximately 10 d, 0 to 100 scale (0 no effect, 100 complete control), read-out: Plant response rating, Ryegrass, Italian
[16] = read-out: Plant response rating, Ryegrass, Italian
[17] = visual injury after approximately 10 d, 0 to 100 scale (0 no effect, 100 complete control), read-out: Plant response rating, Pigweed
[18] = read-out: Plant response rating, Pigweed
[19] = visual injury rating after approximately 10 d, read-out: Ryegrass, Italian plant response rating (0 to 100 scale, 0 no effect, 100 complete control)
[20] = visual injury rating after approximately 10 d, read-out: Pigweed plant response rating (0 to 100 scale, 0 no effect, 100 complete control)

Row | SMILES | pest or weed control at 125 g/ha [1] [%] | pest or weed control at 31 g/ha [1] [%] | pest or weed control at 125 g/ha [2] [%] | pest or weed control at 31 g/ha [2] [%] | pest or weed control at 125 g/ha [3] [%] | pest or weed control at 31 g/ha [3] [%] | pest or weed control at 125 g/ha [4] [%] | pest or weed control at 31 g/ha [4] [%] | pest or weed control at 125 g/ha [5] [%] | pest or weed control at 31 g/ha [5] [%] | pest or weed control at 125 g/ha [6] [%] | pest or weed control at 31 g/ha [6] [%] | pest or weed control at 31 g/ha [7, 16] [%] | pest or weed control at 31 g/ha [8, 18] [%] | Corn plant response rating (crop injury, 0 = no effect, 100 = complete kill) at 31 g/ha [9] [%] | plant injury at 31 g/ha [10] [%] | pest or weed control at 250 g/ha [11] [%] | pest or weed control at 250 g/ha [12] [%] | pest or weed control at 250 g/ha [13] [%] | pest or weed control at 250 g/ha [14] [%] | also measured
1 | Cc1cc([C@H]2CN(C)C(=O)[C@@H]2C(=O)Nc2cccc(F)c2F)cc(C)c1C [Compound 796] | 0 | 0 | 20 | 0 | 40 | 20 | 90 | 70 | 90 | 90 | 20 | 0 | 0 | 0 | 70 | 30 | 90 | 40 | 70 | 0 | pest or weed control at 125 g/ha [7, 15]: 40%; pest or weed control at 125 g/ha [8, 17]: 20%; Corn plant response rating (crop injury, 0 = no effect, 100 = complete kill) at 125 g/ha [9]: 90%
2 | Cc1cc([C@H]2CN(C)C(=O)[C@@H]2C(=O)Nc2ccccc2F)cc(C)c1C [Compound 797] | 0 | 0 | 50 | 0 | 20 | 0 | 90 | 80 | 90 | 90 | 20 | 0 | 0 | 0 | 60 | 0 | 90 | 25 | 90 | 0 | pest or weed control at 125 g/ha [7, 15]: 40%; pest or weed control at 125 g/ha [8, 17]: 20%; Corn plant response rating (crop injury, 0 = no effect, 100 = complete kill) at 125 g/ha [9]: 70%
3 | Cc1cc(F)cc([C@H]2CN(C)C(=O)[C@@H]2C(=O)Nc2cccc(F)c2C#N)c1 [Compound 800] | 0 | 0 | 40 | 0 | 20 | 0 | 90 | 80 | 90 | 80 | 0 | 0 | 0 | 20 | 0 | 0 | 95 | 30 | 95 | 0 | pest or weed control at 125 g/ha [7, 15]: 20%; pest or weed control at 125 g/ha [8, 17]: 40%; Corn plant response rating (crop injury, 0 = no effect, 100 = complete kill) at 125 g/ha [9]: 20%
4 | Cc1cc(F)cc([C@H]2CN(C)C(=O)[C@@H]2C(=O)Nc2cccc(F)c2C)c1 [Compound 802] | 60 | 0 | 40 | 0 | 50 | 40 | 90 | 80 | 90 | 90 | 50 | 0 | 0 | 30 | 20 | 0 | 100 | 20 | 90 | 0 | pest or weed control at 125 g/ha [7, 19]: 40%; pest or weed control at 125 g/ha [8, 20]: 40%; plant injury at 125 g/ha [9]: 70%; plant injury at 125 g/ha [10]: 30%
5 | CN1C[C@H](c2ccc(C(F)(F)F)c(Br)c2)[C@@H](C(=O)Nc2cccc(F)c2F)C1=O [Compound 804] | 0 | 0 | 50 | 40 | 60 | 0 | 90 | 70 | 80 | 70 | 20 | 0 | 0 | 50 | 0 | 0 | 80 | 60 | 30 | 0 | pest or weed control at 125 g/ha [7, 19]: 0%; pest or weed control at 125 g/ha [8, 20]: 60%; plant injury at 125 g/ha [9]: 50%; plant injury at 125 g/ha [10]: 20%
